The target in experiment [1] is T1, Rat M4 mAChR (Rattus norvegicus, UniProt P08485).
T1 construct: host or cells: CHO (CHO-K1) cells
T1 sequence (P08485 1-478): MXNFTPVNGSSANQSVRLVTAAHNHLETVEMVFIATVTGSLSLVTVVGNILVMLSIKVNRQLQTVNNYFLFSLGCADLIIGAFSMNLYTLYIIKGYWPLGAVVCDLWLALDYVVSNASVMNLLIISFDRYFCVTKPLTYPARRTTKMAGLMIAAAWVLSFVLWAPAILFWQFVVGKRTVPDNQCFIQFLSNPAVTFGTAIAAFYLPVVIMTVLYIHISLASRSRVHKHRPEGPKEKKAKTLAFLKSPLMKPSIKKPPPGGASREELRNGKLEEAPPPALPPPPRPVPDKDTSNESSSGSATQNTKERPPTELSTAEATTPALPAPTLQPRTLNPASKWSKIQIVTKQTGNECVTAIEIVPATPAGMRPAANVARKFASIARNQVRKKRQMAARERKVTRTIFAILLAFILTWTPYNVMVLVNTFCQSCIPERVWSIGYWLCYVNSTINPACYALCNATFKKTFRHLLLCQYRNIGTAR
Put plainly: [^3H]NMS radioligand competition binding, CHO cell membranes. The note with it: rat M4, 0.1 nM [^3H]NMS. The method, then:
(§1) Membranes were prepared from CHO cells stably expressing individual rat mAChRs (rM1 to rM5). Briefly, media was removed, cells were washed with PBS and harvested with PBS into a centrifuge bottle. Cells were spun at 2,000 g for 5 minutes at 4 °C. After harvesting, the supernatant was gently discarded and cold membrane preparation buffer [Hanks’ balanced salt solution (HBSS; Invitrogen), 4.17 mM sodium bicarbonate, 20 mM HEPES and 0.5 mM EDTA] was added (10 mL/dish). Cells were then homogenized for 5–10 seconds with a rotary homogenizer (Polytron®) and centrifuged at 20,000g for 20 minutes at 4 °C. The homogenization/centrifugation cycle was repeated twice. After the last centrifugation, the supernatant was gently discarded and the pellet was resuspended in cold membrane preparation buffer (up to 2 mL). All binding reactions were performed in a total volume of 1 mL containing 25 μg of membrane protein. […] The equilibrium binding was terminated by rapid filtration using a 96-well harvester (Brandel®). Filters were washed three times with ice-cold harvesting buffer and were dried overnight. Radioactivity was counted using a TopCount NXT (PerkinElmer®) and counts were normalized to the maximal specific binding in the presence of vehicle. Saturation and competition binding data were analyzed using a weighted nonlinear least-squares interactive curve-fitting program GraphPad Prism (GraphPad Prism Software version 5.0). A mathematical model for one or two binding sites was applied. The equilibrium dissociation constant (KD) and the binding capacity (Bmax) were determined. The inhibition constant (Ki) was determined from competition curves using the Cheng and Prusoff equation[52].
For orientation: Loss of bound radioactivity is the signal in a displacement assay; it reports binding, not function.

The target of experiment [2] is T2, Rat M2 mAChR (Rattus norvegicus, UniProt P10980).
T2 construct: host or cells: CHO (CHO-K1) cells
T2 sequence (P10980 1-466): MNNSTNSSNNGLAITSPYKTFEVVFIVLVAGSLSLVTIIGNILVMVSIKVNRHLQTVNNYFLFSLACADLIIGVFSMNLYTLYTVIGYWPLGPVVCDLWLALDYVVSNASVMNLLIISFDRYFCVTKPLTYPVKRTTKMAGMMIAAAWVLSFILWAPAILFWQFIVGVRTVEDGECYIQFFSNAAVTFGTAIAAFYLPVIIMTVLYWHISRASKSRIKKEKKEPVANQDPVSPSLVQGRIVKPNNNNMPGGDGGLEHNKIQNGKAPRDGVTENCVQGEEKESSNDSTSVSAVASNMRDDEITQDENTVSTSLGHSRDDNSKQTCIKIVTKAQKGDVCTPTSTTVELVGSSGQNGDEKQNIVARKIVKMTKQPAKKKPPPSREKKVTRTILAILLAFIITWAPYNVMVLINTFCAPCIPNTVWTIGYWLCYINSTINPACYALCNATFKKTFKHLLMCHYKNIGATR
The description is as above. The conditions noted are these: rat M2, 0.1 nM [^3H]NMS. How it is done: as §1

Experiment [3] addresses T1, Rat M4 mAChR. Put plainly: calcium mobilization assay in CHO cells (Gqi5). The experiment is classed as cell-based. The note with it: rat M4, 100 μM AEME on ACh curve. How it is done: (§2) Chinese hamster ovary (CHO) cells individually and stably expressing individual rat mAChRs (rM1 to rM5 mAChRs) were purchased from the American Type Culture Collection (ATCC) and cultured according to ATCC recommendations. To generate stable rM2 and rM4 cell lines for use in calcium mobilization assays, rM2 and rM4-expressing cells were stably transfected with a chimeric G protein (Gqi5) using Lipofectamine 2000 (Invitrogen). rM2 and rM4 cells were grown in Ham’s F-12 medium containing 10% heat-inactivated fetal bovine serum (FBS), 2 mM GlutaMAX (Gibco®), 20 mM HEPES, 500 μg/mL G418 sulfate, 200 μg/mL hygromycin B and an antibiotic-antimycotic solution (Gibco®). rM1, rM3 and rM5 mAChR-CHO cells were grown in the same medium without hygromycin B[48]. CHO cells were cultured in a 150 mm-diameter cell culture-treated dishes (Corning®) at 37 °C and 5% CO2 until complete confluence.
(§3) CHO cells expressing rM1, rM3 and rM5 were plated at 4 × 10^4 cells per well, whereas rM2 and rM4 were plated at 6 × 10^4 cells per well, in standard growth media (as described previously under “cell culture”) in 96-well plates 24 hours before assay and were incubated overnight at 37 °C in 5% CO2. […] Cells were incubated for 45 minutes (37 °C, 5% CO2) for dye loading. […] AEME concentration-response curves were determined in single-add experiments. […]

The target in experiment [4] is T2, Rat M2 mAChR. Put plainly: calcium mobilization assay in CHO cells (Gqi5). The experiment is classed as cell-based. The note with it: rat M2, 100 μM AEME on ACh curve. The method, then: as §2, §3

The Ki is the equilibrium dissociation constant of an inhibitor or competing ligand from its target. Read a high Ki as a looser hold on the target. For the compound `COC(=O)C1=CC[C@@H]2CC[C@H]1N2C` [AEME, anhydroecgonine methyl ester], the Ki is 24.5 µM at Rat M4 mAChR [1] and 19.5 µM on Rat M2 mAChR [2]. Further, the mechanism of action entry on Rat M4 mAChR [3] and on Rat M2 mAChR [4] was “antagonized the effects of ACh” in each case.

These data come from publication PMC4667193 (Scientific Reports, 2015).
